# Values of other authors, collected in patent publication US20250255843A1, “COMPOSITIONS COMPRISING CYSTEINE PRODRUGS AND METHODS USING THEREOF” (Nature's Fusions, LLC, priority 2022, published 2025).
# Assays:
# [1] = more stable than cysteine
# [2] = cell membrane
# [3] = in vivo
# [4] = oral; metabolized in liver and kidney
# oxidative damage = settings: relative to NAC
stability relative to cysteine [1],membrane penetration [2],bioavailability [3],detectability in plasma [4],Structure (SMILES),increase of plasma (plasma GSH; medium to high doses (up to 8 g/day)),increase of plasma GSH (plasma GSH; lower than 8 g/day doses) [%],"protective agent against oxidative damage, concentration lower than that of NAC (oxidative damage)"
about 10 times,poorly membrane penetrable,4-6%,almost undetectable in plasma,"CC(=O)N[C@@H](CS)C(=O)O [NAC, N-acetyl L-cysteine]",5-20%,–,–
–,cell-permeable,60-80%,–,"CCOC(=O)[C@H](CS)NC(C)=O [NACET, N-acetyl L-cysteine ethyl ester]",–,250,5-10 times
